# US20120219952A1, “CARBAPENEMASE AND ANTIBACTERIAL TREATMENT” (priority 2009, published 2012)
# B1: DIM-1: Ambler class B carbapenemase (Dutch IMipenemase) from P. stutzeri 13, SEQ ID NO:1 (protein, listed as Pseudomonas stutzeri)
# chain: MRTHFTALLLLFSLSSLANDEVPELRIEKVKENIFLHTSYSRVNGFGLVSSNGLVVIDKGNAFIVDTPWSDRDTETLVHWIRKNGYELLGSVSTHWHEDRTAGIKWLNDQSISTYATTSTNHLLKENKKEPAKYTLKGNESTLVDGLIEVFYPGGGHTIDNVVVWLPKSKILFGGCFVRSLDSEGLGYTGEAHIDQWSRSAQNALSRYSEAQIVIPGHGKIGDIALLKHTKSLAETASNKSIQPNANASAD
# Key:
# [1] = system: P. stutzeri clinical isolate 13; assay: Routine antibiogram by disk diffusion assay; format: cell-based, Pseudomonas stutzeri; conditions: clinical isolate P. stutzeri 13 expressing DIM-1
# Description: Bacterial strains. P. stutzeri clinical isolate 13 was identified with the API-20 NE system (BioMérieux, Marcy l'Etoile, France), and confirmed by rRNA sequencing. Escherichia coli TOP10 (In Vitrogen, Carlsbad, Calif.)was the host for cloning experiments (Poirel et al., 2001)
# (§1) Susceptibility testing. Antibiotic-containing disks were used for routine antibiograms by the disk diffusion assay (Sanofi-Diagnostic Pasteur, Marnes-la-Coquette, France). The ESBL double-disk synergy test was performed with disks containing ceftazidime or cefepime and ticarcillin-clavulanic acid on Mueller-Hinton agar plates, and the results were interpreted as described previously (Poirel, Le Thomas et al., 2000). The carbapenemase detection was performed by using Etest carbapenem-containing strips (AB Biodisk, Solna, Sweden).
# P. stutzeri 13 [2] = assay: MICs by agar dilution technique; format: cell-based, Pseudomonas stutzeri; conditions: for β-lactam susceptibility from MICs: agar dilution, 37° C., 18 h; for restoration of susceptibility to penicillins on addition of inhibitor: clavulanic acid 2 μg/ml, tazobactam 4 μg/ml
# Description: (§2) MICs were determined by an agar dilution technique with Mueller-Hinton agar (Sanofi-Diagnostic Pasteur) with an inoculum of 10^4 CFU/ml, as described previously (Poirel, Le Thomas et al., 2000). All plates were incubated at 37° C. for 18 h at ambient atmosphere. MICs of β-lactams were determined alone or in combination with a fixed concentration of clavulanic acid (2 μg/ml), tazobactam (4 μg/ml), and sulbactam (4 μg/ml). MIC results were interpreted according to the guidelines of the National Committee for Clinical Laboratory Standards (NCCLS) (CLSI).
# E. coli DH10B(pXD-1) = assay: MICs by agar dilution technique; format: cell-based, Escherichia coli; conditions: for β-lactam susceptibility from MICs: agar dilution, 37° C., 18 h; for restoration of susceptibility to penicillins on addition of inhibitor: clavulanic acid 2 μg/ml, tazobactam 4 μg/ml
# Description: as §2
# carbapenemase DIM-1 = carbapenemase DIM-1 (Stutzerimonas stutzeri, UniProt D5JGF6); assay: Kinetic measurements with purified carbapenemase (hydrolysis of β-lactams); format: biochemical, P. stutzeri; conditions: purified DIM-1, 30° C., 100 mM sodium phosphate pH 7.0
# From the text: (§3) Carbapenemase purification and isoelectric focusing (IEF) analysis. […] Carbapenemase was purified by ion-exchange chromatography.
# P. stutzeri 13 [3] = assay: Carbapenemase detection with Etest carbapenem-containing strips; format: cell-based, Pseudomonas stutzeri; conditions: imipenem alone vs with EDTA
# Description: as §1
# [4] = system: CC(C)(O/N=C(\C(=O)N[C@@H]1C(=O)N2C(C(=O)[O-])=C(C[n+]3ccccc3)CS[C@H]12)c1csc(N)n1)C(=O)O; assay: Kinetic measurements with purified carbapenemase (hydrolysis of β-lactams); format: biochemical, P. stutzeri; conditions: other: purified DIM-1, 30° C., 100 mM sodium phosphate pH 7.0
# From the text: as §3
# [5] = Specific activity of purified carbapenemase (imipenem hydrolysis); format: biochemical; conditions: purified enzyme; 1 U = 1 μmol of imipenem hydrolyzed per min per mg of protein
# Description: The specific activity of the purified carbapenemase from E. coli DH10B(pXD-1) was obtained as described previously (Poirel et al., 1999). One unit of enzyme activity was defined as the activity which hydrolyzed 1 μmol of imipenem per min per mg of protein. The total protein content was measured with the DC Protein assay kit (Bio-Rad, Ivry-sur-Seine, France).
molecule,measurement,setting,value
NCC[C@H](O)C(=O)N[C@@H]1C[C@H](N)[C@@H](O[C@H]2O[C@H](CN)[C@@H](O)[C@H](O)[C@H]2O)[C@H](O)[C@H]1O[C@H]1O[C@H](CO)[C@@H](O)[C@H](N)[C@H]1O [amikacin],susceptibility of P. stutzeri 13,[1],susceptible
C[C@H]1[C@H](NC(=O)/C(=N\OC(C)(C)C(=O)O)c2csc(N)n2)C(=O)N1S(=O)(=O)O [aztreonam],susceptibility of P. stutzeri 13,[1],fully susceptible
same,β-lactam susceptibility from MICs,P. stutzeri 13 [2],spared
same,β-lactam susceptibility from MICs,E. coli DH10B(pXD-1),spared
same,"hydrolysis by DIM-1 (relative hydrolysis rates, substrate profile)",carbapenemase DIM-1,excluding
CO/N=C(\C(=O)N[C@@H]1C(=O)N2C(C(=O)[O-])=C(C[N+]3(C)CCCC3)CS[C@H]12)c1csc(N)n1 [cefepime],susceptibility of P. stutzeri 13,[1],reduced susceptibility
CO/N=C(\C(=O)N[C@@H]1C(=O)N2C(C(=O)O)=C(COC(C)=O)CS[C@H]12)c1csc(N)n1 [cefotaxime],"hydrolysis by DIM-1 (relative hydrolysis rates, substrate profile)",carbapenemase DIM-1,hydrolyzed at a similar level as benzylpenicillin
CO[C@@]1(NC(=O)Cc2cccs2)C(=O)N2C(C(=O)O)=C(COC(N)=O)CS[C@@H]21 [cefoxitin],"hydrolysis by DIM-1 (relative hydrolysis rates, substrate profile)",carbapenemase DIM-1,good substrate
CO/N=C(\C(=O)N[C@@H]1C(=O)N2C(C(=O)[O-])=C(C[n+]3cccc4c3CCC4)CS[C@H]12)c1csc(N)n1 [cefpirome],susceptibility of P. stutzeri 13,[1],reduced susceptibility
CC(C)(O/N=C(\C(=O)N[C@@H]1C(=O)N2C(C(=O)[O-])=C(C[n+]3ccccc3)CS[C@H]12)c1csc(N)n1)C(=O)O [ceftazidime],susceptibility of P. stutzeri 13,[1],reduced susceptibility
same,"hydrolysis by DIM-1 (relative hydrolysis rates, substrate profile)",carbapenemase DIM-1,well hydrolyzed
O=C(N[C@H](CO)[C@H](O)c1ccc([N+](=O)[O-])cc1)C(Cl)Cl [chloramphenicol],susceptibility of P. stutzeri 13,[1],resistant
O=C(O)[C@H]1/C(=C/CO)O[C@@H]2CC(=O)N21 [clavulanic acid],restoration of susceptibility to penicillins on addition of inhibitor,P. stutzeri 13 [2],did not restore any susceptibility to penicillins
same,restoration of susceptibility to penicillins on addition of inhibitor,E. coli DH10B(pXD-1),did not restore any susceptibility to penicillins
C[C@@H](O)[C@H]1C(=O)N2C(C(=O)O)=C(SCCN=CN)C[C@H]12 [imipenem],MIC (carbapenem-containing E-test),P. stutzeri 13 [3],64 µg/mL
C[C@@H](O)[C@H]1C(=O)N2C(C(=O)O)=C(S[C@@H]3CN[C@H](C(=O)N(C)C)C3)[C@H](C)[C@H]12 [meropenem],β-lactam susceptibility from MICs,P. stutzeri 13 [2],reduced susceptibility
same,β-lactam susceptibility from MICs,E. coli DH10B(pXD-1),reduced susceptibility
CCN[C@@H]1C[C@H](N)[C@@H](O[C@H]2OC(CN)=CC[C@H]2N)[C@H](O)[C@H]1O[C@H]1OC[C@](C)(O)[C@H](NC)[C@H]1O [netilmicin],susceptibility of P. stutzeri 13,[1],susceptible
CCN1CCN(C(=O)N[C@@H](C(=O)N[C@@H]2C(=O)N3[C@@H]2SC(C)(C)[C@@H]3C(=O)O)c2ccccc2)C(=O)C1=O [piperacillin],susceptibility of P. stutzeri 13,[1],resistant
C[C@]1(Cn2ccnn2)[C@H](C(=O)O)N2C(=O)C[C@H]2S1(=O)=O [tazobactam],restoration of susceptibility to penicillins on addition of inhibitor,P. stutzeri 13 [2],did not restore any susceptibility to penicillins
same,restoration of susceptibility to penicillins on addition of inhibitor,E. coli DH10B(pXD-1),did not restore any susceptibility to penicillins
CC1(C)S[C@@H]2[C@H](NC(=O)[C@H](C(=O)O)c3ccsc3)C(=O)N2[C@H]1C(=O)O [ticarcillin],susceptibility of P. stutzeri 13,[1],resistant
NC[C@H]1O[C@H](O[C@H]2[C@H](O)[C@@H](O[C@H]3O[C@H](CO)[C@@H](O)[C@H](N)[C@H]3O)[C@H](N)C[C@@H]2N)[C@H](N)C[C@@H]1O [tobramycin],susceptibility of P. stutzeri 13,[1],resistant
carbapenemase DIM-1 (Stutzerimonas stutzeri),Km,[4],50 µM
colistin,susceptibility of P. stutzeri 13,[1],susceptible
gentamicin,susceptibility of P. stutzeri 13,[1],resistant
piperacillin-tazobactam,susceptibility of P. stutzeri 13,[1],resistant
B1,specific activity,[5],21 U.mg of protein^−1
